Assay results taken from ChEMBL document CHEMBL3232771, “Synthesis and positive inotropic evaluation of [1,2,4]triazolo[3,4-a]phthalazine and tetrazolo[5,1-a]phthalazine derivatives bearing substituted piperazine moieties” (2014).
Values belong to the compound of their own block, whether it stands above or below them. Activity calls are given as the source filed them. The rule behind the calls is not given here.

Key:
Heart = assay: Positive inotropic activity in rabbit heart assessed as increase in left atrium stroke volume at 3 X 10^-5 M; assay type: functional
Oryctolagus cuniculus [1] = species on record: Oryctolagus cuniculus; assay: Positive inotropic activity in perfused beating rabbit atrium assessed as increase in stroke volume at 30 umol/l relative to control; assay type: functional, tissue-based; conditions: Cardiac atrium
Oryctolagus cuniculus [2] = species on record: Oryctolagus cuniculus; assay: Positive inotropic activity in perfused rabbit atrium assessed as increase in stroke volume at 30 umol/l in presence of L-type Ca2+ channel blocker nifedipine relative to control; assay type: functional, tissue-based; conditions: Cardiac atrium
Oryctolagus cuniculus [3] = species on record: Oryctolagus cuniculus; assay: Positive inotropic activity in perfused rabbit atrium assessed as increase in stroke volume at 30 umol/l in presence of adenylate cyclase activator forskolin relative to control; assay type: functional, tissue-based; conditions: Cardiac atrium
Oryctolagus cuniculus [4] = species on record: Oryctolagus cuniculus; assay: Positive inotropic activity in perfused rabbit atrium assessed as increase in stroke volume at 30 umol/l in presence of PKA inhibitor H-89 relative to control; assay type: functional, tissue-based; conditions: Cardiac atrium
Oryctolagus cuniculus [5] = species on record: Oryctolagus cuniculus; assay: Positive inotropic activity in perfused rabbit atrium assessed as increase in stroke volume at 1 X 10^-5 to 10^-4 M relative to control; conditions: Cardiac atrium
[6] = Oryctolagus cuniculus, Cardiac atrium

SMILES: O=C(c1cccc(Br)c1)N1CCN(c2nn3nnnc3c3ccccc23)CC1
Activity (Heart; [6]): inactive

SMILES: O=C(/C=C/c1ccc(Br)cc1)N1CCN(c2nn3cnnc3c3ccccc23)CC1
Activity (Heart; [6]): inactive

SMILES: COc1ccc(C(=O)N2CCN(c3nn4nnnc4c4ccccc34)CC2)cc1
Activity (Heart): 9.39% | Activity (Oryctolagus cuniculus [1]): Active

SMILES: O=C(/C=C/c1cccc(Cl)c1)N1CCN(c2nn3nnnc3c3ccccc23)CC1
Activity (Heart; [6]): inactive

SMILES: O=C(c1ccc(F)cc1)N1CCN(c2nn3nnnc3c3ccccc23)CC1
Activity (Heart): 4.73% | Activity (Oryctolagus cuniculus [1]): Active

SMILES: Cc1ccc(C(=O)N2CCN(c3nn4nnnc4c4ccccc34)CC2)cc1
Activity (Heart): 13.46% | Activity (Oryctolagus cuniculus [1]): Active

SMILES: O=C(/C=C/c1ccc(Cl)cc1)N1CCN(c2nn3cnnc3c3ccccc23)CC1
Activity (Heart; [6]): inactive

SMILES: COc1cccc(C(=O)N2CCN(c3nn4nnnc4c4ccccc34)CC2)c1
Activity (Heart): 1.94%

SMILES: O=C(c1ccc(Cl)cc1)N1CCN(c2nn3cnnc3c3ccccc23)CC1
Activity (Heart): 13.33% | Activity (Oryctolagus cuniculus [1]): Active

SMILES: O=C(c1ccccc1)N1CCN(c2nn3nnnc3c3ccccc23)CC1
Activity (Heart; [6]): inactive

SMILES: O=C(c1ccccc1)N1CCN(c2nn3cnnc3c3ccccc23)CC1
Activity (Heart; [6]): inactive

SMILES: O=C(c1ccc(Br)cc1)N1CCN(c2nn3cnnc3c3ccccc23)CC1
Activity (Heart): 3.65% | Activity (Oryctolagus cuniculus [1]): Active

SMILES: COc1ccc(C(=O)N2CCN(c3nn4cnnc4c4ccccc34)CC2)cc1
Activity (Heart): 3.68% | Activity (Oryctolagus cuniculus [1]): Active

SMILES: Cc1[nH]c(=O)c(C#N)cc1-c1ccncc1 [MILRINONE]
Activity (Heart): 2.46%

SMILES: Cc1ccc(/C=C/C(=O)N2CCN(c3nn4nnnc4c4ccccc34)CC2)cc1
Activity (Heart): 2.74% | Activity (Oryctolagus cuniculus [1]): Active

Activity (Oryctolagus cuniculus [3]): Active
SMILES: Cc1ccc(C(=O)N2CCN(c3nn4cnnc4c4ccccc34)CC2)cc1
Activity (Oryctolagus cuniculus [2]): inactive | Activity (Oryctolagus cuniculus [4]): inactive | Activity (Heart): 19.15% | Activity (Oryctolagus cuniculus [1]): Active | Activity (Oryctolagus cuniculus [5]): Active

SMILES: COc1cccc(/C=C/C(=O)N2CCN(c3nn4cnnc4c4ccccc34)CC2)c1
Activity (Heart): 4.13% | Activity (Oryctolagus cuniculus [1]): Active

SMILES: O=C(c1ccc(Br)cc1)N1CCN(c2nn3nnnc3c3ccccc23)CC1
Activity (Heart): 7.49% | Activity (Oryctolagus cuniculus [1]): Active

SMILES: Cc1ccc(/C=C/C(=O)N2CCN(c3nn4cnnc4c4ccccc34)CC2)cc1
Activity (Heart): 14.87% | Activity (Oryctolagus cuniculus [1]): Active | Activity (Oryctolagus cuniculus [5]): Active

SMILES: O=C(/C=C/c1ccc(F)cc1)N1CCN(c2nn3cnnc3c3ccccc23)CC1
Activity (Heart; [6]): inactive

SMILES: O=C(/C=C/c1ccccc1)N1CCN(c2nn3cnnc3c3ccccc23)CC1
Activity (Heart; [6]): inactive

SMILES: O=C(c1cccc(Cl)c1)N1CCN(c2nn3nnnc3c3ccccc23)CC1
Activity (Heart): 0.23%

SMILES: COc1ccc(CN2CCN(c3nn4nnnc4c4ccccc34)CC2)cc1
Activity (Heart): 12.02%

SMILES: O=C(/C=C/c1ccccc1)N1CCN(c2nn3nnnc3c3ccccc23)CC1
Activity (Heart): 8.09% | Activity (Oryctolagus cuniculus [1]): Active

SMILES: O=C(c1cccc(Cl)c1)N1CCN(c2nn3cnnc3c3ccccc23)CC1
Activity (Heart): 2.56% | Activity (Oryctolagus cuniculus [1]): Active

SMILES: O=C(/C=C/c1ccc(Br)cc1)N1CCN(c2nn3nnnc3c3ccccc23)CC1
Activity (Heart; [6]): inactive

SMILES: COc1cccc(C(=O)N2CCN(c3nn4cnnc4c4ccccc34)CC2)c1
Activity (Heart): 0.95%

SMILES: O=C(c1cccc(Br)c1)N1CCN(c2nn3cnnc3c3ccccc23)CC1
Activity (Heart): 8.49% | Activity (Oryctolagus cuniculus [1]): Active

SMILES: O=C(/C=C/c1cccc(Br)c1)N1CCN(c2nn3nnnc3c3ccccc23)CC1
Activity (Heart; [6]): inactive

SMILES: O=C(c1ccc(F)cc1)N1CCN(c2nn3cnnc3c3ccccc23)CC1
Activity (Heart): 2.91% | Activity (Oryctolagus cuniculus [1]): Active

SMILES: O=C(/C=C/c1cccc(Br)c1)N1CCN(c2nn3cnnc3c3ccccc23)CC1
Activity (Heart; [6]): inactive

SMILES: O=C(c1ccc(Cl)cc1)N1CCN(c2nn3nnnc3c3ccccc23)CC1
Activity (Heart): 2.05%

SMILES: O=C(/C=C/c1ccc(Cl)cc1)N1CCN(c2nn3nnnc3c3ccccc23)CC1
Activity (Heart; [6]): inactive

SMILES: O=C(/C=C/c1ccc(F)cc1)N1CCN(c2nn3nnnc3c3ccccc23)CC1
Activity (Heart; [6]): inactive

SMILES: COc1cccc(/C=C/C(=O)N2CCN(c3nn4nnnc4c4ccccc34)CC2)c1
Activity (Heart): 5.35% | Activity (Oryctolagus cuniculus [1]): Active

SMILES: O=C(/C=C/c1cccc(Cl)c1)N1CCN(c2nn3cnnc3c3ccccc23)CC1
Activity (Heart; [6]): inactive
